One assay concerns Sprague-Dawley (CD) rats. Nature of the assay: Rat tail-flick latency test (heat source, 15 second maximum). The assay is classed as in vivo. The conditions noted are these: for antinociceptive activity (tail-flick latency), administered alone: single agent: morphine 1.2 mg/kg s.c. or ibudilast 50 mg/kg po. The protocol:
Male Sprague-Dawley (CD) rats were acclimated to a room temperature of 79° F. to semi-confined conditions on a heated glass surface (79° F.). On the first day, rats were acclimated to a glass surface for 20-30 minutes. Rats were in chambers made of plexiglass and could move freely in either direction. No stimulus was given on day 1. On day 2, rats were acclimated for 5 minutes, and a high intensity beam of light was directed at each rat tail approximately 4 cm from the tip. The time it took for a rat tail to withdraw from the heat source was recorded as the baseline latent period for tail flick. Three trials were done with 5 minutes between trials for each rat. The light source was moved for the 2nd and 3rd trials one cm caudal and rostral of the original trial to avoid tissue damage. Animals were dosed orally with ibudilast (50 mg/kg in vehicle (10% HCO60+10% PEG in sterile water) and/or 1.2 mg/kg morphine s.c. formulated in saline for injection. Dose volumes were 1 ml/kg for s.c. administrations (i.e. opioid) and 10 ml/kg for p.o. administrations. Animals were dosed and returned to their cages until 5 minutes before each hourly time point, when they were returned to the glass surface and stimulated with the heat source (3 trials/time point). The ibudilast vehicle was also shown not to have analgesic activity and performed like the saline control. Studies were performed at Avigen Inc. under IACUC regulations.
In general terms: Thermal pain tests record how soon the animal reacts.

A further assay concerns Sprague-Dawley rats. Put plainly: Modified Hargreaves test (high and low intensity), tail and hindpaw withdrawal to heat stimuli. The assay is classed as in vivo, rat. The protocol: Pathogen-free adult male Sprague-Dawley rats (300-375 g; Harlan Labs, Madison, Wis.) were used in all experiments. Rats were housed in temperature (23±3° C.) and light (12 h: 12 h light:dark cycle; lights on at 0700) controlled rooms with standard rodent chow and water available ad libitum. All procedures were approved by the Institutional Animal Care and Use Committee of the University of Colorado at Boulder. Each study represents an n=6 per group.
Morphine sulfate and oxycodone hydrochloride were purchased from Sigma (St. Louis, Mo., USA). Morphine and oxycodone were administered subcutaneously at 4 mg/kg in a dose volume of 1 ml/kg in sterile injection normal saline. Ibudilast was supplied by Avigen (Alameda, Calif., USA). Ibudilast was administered intraperitoneally at 7.5 mg/kg in a dose volume of 2.5 ml/kg in 35% PEG: 65% injection saline. Morphine and oxycodone doses reported are as free base concentrations.
Hargreaves tests for analgesia and hyperalgesia. Rats received at least three 60 min habituations to the test environment prior to behavioral testing. Thresholds for behavioral response to heat stimuli applied to the plantar surface of each hindpaw and tail were assessed using a modified Hargreaves test (Hargreaves et al., 1988). All testing was conducted blind with respect to group assignment. Briefly, baseline withdrawal values were calculated from an average of 2 consecutive withdrawal latencies of the tail and the left and the right hindpaws, measured at 15-min intervals. Latencies for the high intensity stimulus at baseline ranged from 2 to 3 s, and a cut-off time of 10 s was imposed to avoid tissue damage. Latencies for the low intensity stimulus at baseline ranged from 6 to 7 s, and a cut-off time of 20 s was imposed to avoid tissue damage. The order of paw and tail testing varied randomly.
The analgesic responses were calculated as the % of maximal possible effect
(Carmody, 1995). For high intensity Hargreaves, a cut off of 10 s was used. For low intensity Hargreaves, a 20 s cut off was employed. Since there is no unilateral paw effect expected (or observed) left and right withdrawal latencies were averaged. Statistical significance for analysis of time courses was assessed using a two-way repeated ANOVA with Bonferroni post hoc test and compared the analgesic responses of active treatments versus their vehicle controls. Area under the curves were analyzed with a students t-test. Significance was set at P<0.05. Calculations were conducted with Excel 2003 SP2 (Microsoft, Redmond, Calif., USA) & Prism 4.03 (GraphPad, San Diego, Calif., USA).
Following baseline withdrawal latency assessments (−45 min), animals received ibudilast or vehicle and were tested again 10 min later to determine if ibudilast or vehicle had any effect on withdrawal latencies. At this time (time 0), the animals received a subcutaneous saline injection (1 ml/kg) to control for conditions in Experiment 2 (see below). Animals were then tested every 10 minutes for 80 min alternating high and low intensity Hargreaves tests.
Following baseline withdrawal latency assessments (−45 min), animals received ibudilast or vehicle (−30 min) and were tested again at −10 min. At time 0, animals received a subcutaneous morphine injection (4 mg/kg in a dose volume of 1 ml/kg in injection saline) and were tested every 10 minutes for 230 min alternating high and low intensity Hargreaves tests. […]

Entries after “also recorded” stand apart in the source; their conditions may differ.

On to `CC(C)C(=O)c1c(C(C)C)nn2ccccc12` [ibudilast, 3-isobutyryl-2-isopropylpyrazolo[1,5-a]pyridine], for which, in the assay on Sprague-Dawley (CD) rats (ibudilast 50 mg/kg po + morphine 1.2 mg/kg s.c. concurrently, vs either therapeutic alone), the “tail-flick latency, co-administration of oral ibudilast and s.c. morphine” value is on record as “substantial, greater-than-additive increase; also recorded: potentiates morphine-induced analgesia”. Also, in the assay with Sprague-Dawley (CD) rats, the “antinociceptive activity (tail-flick latency), administered alone” value is “weak antinociceptive activity”. In the assay on Sprague-Dawley rats (ibudilast 7.5 mg/kg i.p. 30 min prior to morphine 4 mg/kg s.c., high and low intensity Hargreaves, vs vehicle + morphine), the “enhancement of morphine analgesia, tail and paw withdrawal latencies” value is listed as “significantly enhanced; also recorded: potentiated analgesia”. For the same compound, the “enhancement of oxycodone analgesia, tail and paw withdrawal latencies” value in the assay on Sprague-Dawley rats (ibudilast 7.5 mg/kg i.p. 30 min prior to oxycodone 4 mg/kg s.c., high and low intensity Hargreaves, vs vehicle + oxycodone) was “significantly enhanced; also recorded: potentiated analgesia”. Besides, the “area under the analgesia curve, co-administration with morphine” value with Sprague-Dawley rats (ibudilast 7.5 mg/kg i.p. + morphine 4 mg/kg s.c., tail and hind paw, vs vehicle + morphine) is “significant increase in analgesia”. In addition, in the assay with Sprague-Dawley rats (ibudilast 7.5 mg/kg i.p. + oxycodone 4 mg/kg s.c., tail and hind paw, vs vehicle + oxycodone), the “area under the analgesia curve, co-administration with oxycodone” value is “significant increase in analgesia”. Further, the “tail and paw withdrawal latencies (% maximal possible effect), ibudilast alone” value in the assay on Sprague-Dawley rats (ibudilast 7.5 mg/kg i.p. alone (followed by s.c. saline), high and low intensity Hargreaves, vs vehicle 35% PEG) is on record as “no significant influence; also recorded: little to no effect”.
Take `CN1CC[C@]23c4c5ccc(O)c4O[C@H]2[C@@H](O)C=C[C@H]3[C@H]1C5` [morphine]: the “antinociceptive activity (tail-flick latency), administered alone” value in the assay with Sprague-Dawley (CD) rats is recorded as “weak antinociceptive activity”.

These data come from US20080181876A1, “Methods for treating acute and subchronic pain” (priority 2007, published 2008).
